# Laboratory results published in US20110065749A1, “METHOD AND PHARMACEUTICAL COMPOSITION FOR TREATMENT OF MENTAL DISORDERS” (ACTIVE CO. LTD., priority 2008, published 2011).
# Where a name gives a salt, the structure may show the parent alone.
# Key:
# Format in all cases: in vivo, human
# [1] = tested on: Alzheimer-Type Dementia; experiment: Case 4: Alzheimer-type dementia patient
# From the text: Case 4: Alzheimer-Type Dementia
# [2] = tested on: Fibromyalgia; experiment: Case 15: fibromyalgia (1) patient; settings: maximum doses, three years, before Cephadol
# Method: They then visited the inventor's clinic. When the inventor started the treatment with 75 mg/day Cephadol®, systemic pain of the patient was improved in two days. […] As a result, they became able to perform usual household work, go outside, and further make a trip.
# [3] = tested on: Alcoholism; experiment: Case 6: alcoholism patient; settings: before Cephadol
# From the text: Case 6: Alcoholism Patient was a office worker, who was drinking 1 to 2 liters of beer and 3 to 5 glasses of distilled spirit or whisky with water every day. They were drinking alcohol in daytime on Sundays, and suffering from a complication of liver dysfunction.
# [4] = tested on: manic state of bipolar I disorder; experiment: Case 3: manic-depressive illness patient; settings: 1,200 mg, before Cephadol
# Method: Case 3: Manic-Depressive Illness Patient was a person, who had continuously been in a manic state of bipolar I disorder for over one month. An antiepileptic drug, or 1,200 mg of Limas®, was ineffective. Antipsychotic drugs were not usable due to significant side effects. […] When they discontinued the administration of Cephadol®, the manic state appeared after 5 days.
# [5] = tested on: Fibromyalgia; experiment: Case 16: fibromyalgia (2) patient; settings: before Cephadol
# From the text: […] There were persistent systemic malaise, lassitude, depressed mood, sleeplessness, neck stiffness and systemic pain. Their score of depression on Hamilton D scale was 25 to 28. No hematological abnormality was detected. As a result of overall judgment based on examinations including a tender point examination, they were diagnosed as having fibromyalgia. They were unresponsive to tricyclic or tetracyclic antidepressants, SSRIs, SNRIs, and Moclobemide. Then, they continued the treatment with 60 mg/day fluoxetine. […] It was concluded that the onset of their depression was due to the systemic pain, and the depression was improved by the drastic improvement of the systemic pain.
# [6] = tested on: depression; experiment: Case 9: depressed symptoms patient, HAMD; settings: 40 mg, before Cephadol
# From the text: For evaluation of the state of depression, for example, Hamilton's rating scale for depression (HAMD) is available. The HAMD was developed by Max Hamilton in 1960 for the purpose of measuring the severity of a patient diagnosed with depression (Hamilton, M., Journal of Neurology, Neurosurgery & Psychiatry, 23-56-62 (1960) and Hamilton, M., “Development of rating scale for primary depressive illness”, British Journal of Social and Clinical Psychology, 6: 278-296 (1967)). In view of its high usefulness, it is a representative scale of evaluation for depression, widely used in clinical researches and practices. The 17 item version is used for clinical trials of antidepressants in Japan, whereas the 21 item version and the 24 item version are used in Europe or other countries.
# When the severity is calculated using Hamilton's rating scale for depression (HAMD), each item is evaluated with three grades of 0-2, or five grades of 0-4. For example, the case is diagnosed as severe where the point is 20 or higher and, as the point decreases, the symptom is diagnosed as being improved.
# Case 9: Depressed Symptoms
# Administration to the patient of 75 mg/day Cephadol® reduced the HAMD score from 20 points to 7 points after 3 days.
# [7] = tested on: Bulimia; experiment: Case 8: bulimia (2) patient; settings: 40 mg
# From the text: Patient was a person, who had been suffering from bulimia. The bulimia persisted even after their marriage and childbearing.
# [8] = tested on: Fibromyalgia; experiment: Case 18: fibromyalgia (4) patient; settings: before Cephadol
# From the text: Case 18: Fibromyalgia (4)
# A person (housewife) is a patient with depression, having received regular medical treatment since seven years ago. […] However, a diagnosis with autoimmune disease or inflammatory disease was negative from their blood test. Due to back pain and fingertip pain, they were unable to make household work, and it was painful for them to hold even a light object by hand. They had pain at 15 points among the 18 tender points of the whole body, and was diagnosed with fibromyalgia. […] They had to stay in bed all day long, and such a condition lasted for the long term.
compound,measurement,setting,value
COc1cc2c(cc1OC)C(=O)C(CC1CCN(Cc3ccccc3)CC1)C2 (stereo not shown) [donepezil hydrochloride],dementia,[1]; donepezil hydrochloride together with 50 mg Cephadol before sleeping,significant improvement of the dementia
same,side effect that made treatment difficult,[1]; donepezil hydrochloride without Cephadol,excitatory side effect
CN(C)CCC=C1c2ccccc2CCc2ccccc21 [Triptanol],response of fibromyalgia to earlier medicines,[2],without any improvement
N#CN [Cyanamide],efficacy of earlier drugs on alcoholism,[3],without any efficacy
O=C([O-])[O-].[Li+].[Li+] [Limas®],efficacy on manic state,[4],ineffective
O=C(NCCN1CCOCC1)c1ccc(Cl)cc1 [Moclobemide],response to earlier drugs,[5],unresponsive
"Fc1ccc([C@@H]2CCNC[C@H]2COc2ccc3c(c2)OCO3)cc1 [Paxil®, paroxetine]",depression,[6],without any improvement
CNCCC(Oc1ccc(C(F)(F)F)cc1)c1ccccc1.Cl (stereo not shown) [Prozac®],bulimia,[7]; before Cephadol,slightly improved the bulimia
same,frequency of overeating and emesis,[7]; previously two to three times a day,reduced to once daily
CCN(CC)C(=O)C1(c2ccccc2)CC1CN (stereo not shown) [Milnaciplan],back pain,[8],rather deteriorated their back pain
